Laboratory results from article PMC12006963, “Application of Deuterium in an M1 Positive Allosteric Modulator Back-Up Program: The Discovery of VU6045422” (ACS Chemical Neuroscience, 2025).
Where two headings read alike, the source gives them in different places.

Assays:
rM1 = target: T1, rM1 (Rattus norvegicus, UniProt P08482); assay: Calcium mobilization, rat M1 (agonist and PAM modes); assay type: cell-based
T1 sequence (P08482 1-460): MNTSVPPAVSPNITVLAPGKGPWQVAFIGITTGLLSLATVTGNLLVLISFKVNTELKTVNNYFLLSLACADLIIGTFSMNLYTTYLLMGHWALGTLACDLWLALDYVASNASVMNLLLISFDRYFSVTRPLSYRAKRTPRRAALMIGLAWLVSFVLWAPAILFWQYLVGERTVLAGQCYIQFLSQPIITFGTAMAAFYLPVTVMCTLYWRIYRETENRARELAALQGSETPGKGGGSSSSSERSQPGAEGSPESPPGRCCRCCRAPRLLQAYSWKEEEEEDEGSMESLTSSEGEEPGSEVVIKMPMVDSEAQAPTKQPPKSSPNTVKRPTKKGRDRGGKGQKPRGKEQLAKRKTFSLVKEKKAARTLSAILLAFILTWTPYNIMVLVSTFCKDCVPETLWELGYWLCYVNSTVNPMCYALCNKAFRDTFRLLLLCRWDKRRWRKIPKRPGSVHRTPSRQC

[1] = Hepatocyte metabolite identification (human); assay type: in vitro ADME; conditions: human hepatocytes, 4 h incubation
Experimental: (§1) Prior to full characterization of deuterated analogues 3 and 5, they were incubated in rat, dog, monkey, and human hepatocytes, along with 1, to determine the amount of parent remaining, as well as the degree of undesired oxidative metabolites 2, 4, and 6 (Figure 2). […] For the gem-dideutero congener 3, metabolic stability was improved in vitro. […] Thus, in hepatocytes in vitro, the kinetic isotope effect engendered greater metabolic stability of the labile hot spot on the lactam. It remained to be seen if this effect would translate in vivo, but we first had to assess the impact of the deuterated analogues on molecular pharmacology, in vitro DMPK, standard low-dose in vivo DMPK and, if warranted, in vivo efficacy in a rat novel object recognition (NOR) behavioral assay.

[2] = Hepatocyte metabolite identification (monkey); assay type: in vitro ADME; conditions: monkey hepatocytes, 4 h incubation
Experimental: as §1

[3] = Predicted hepatic clearance, hepatic microsomes (human); assay type: in vitro ADME
Experimental: After a 5 min preincubation, the reaction was initiated by the addition of NADPH (1 mM). At selected time intervals (0, 3, 7, 15, 25, and 45 min), aliquots were taken and subsequently placed into a 96-well plate containing cold acetonitrile with internal standard (50 ng/mL carbamazepine). Plates were then centrifuged at 3000 rcf (4 °C) for 10 min, and the supernatant was transferred to a separate 96-well plate and diluted 1:1 with water for LC/MS/MS analysis. The in vitro half-life ( 1/2, min, Eq. 1), intrinsic clearance (CLint, mL/min/kg, Eq. 2), and subsequent predicted hepatic clearance (CLhep, mL/min/kg, Eq. 3) was determined employing the […]
where k represents the slope from linear regression analysis of the natural log percent remaining of a test compound as a function of incubation time […]
(2) CLint = in vitroT1/2 x mg microsomes x gram liver x kg body wt ascale-up factors: of 20 (human) or 45 (rat) […]
where Qh (hepatic blood flow, mL/min/kg) is 21 (human) or 70 (rat).
LC/MS/MS Bioanalysis of Samples from Plasma Protein Binding and Intrinsic Clearance […]
Samples were analyzed on a Thermo Electron TSQ Quantum Ultra triple quad mass spectrometer (San Jose, CA) via electrospray ionization (ESI) with two Themo Electron Accella pumps (San Jose, CA), and a Leap Technologies CTC PAL autosampler (Carrboro, NC). Analytes were separated by gradient elution on a dual column system with two Thermo Hypersil Gold (2.1 x 30 mm, 1.9 µm) columns (San Jose, CA) thermostated at 40 °C. HPLC mobile phase A was 0.1% formic acid in water and mobile phase B was 0.1% formic acid in acetonitrile. The gradient started […]
for 0.2 min; returned to 10% B in 0.1 min. The total run time was 1.3 min and the HPLC flow rate was 0.8 mL/min. While pump 1 ran the gradient method, pump 2 equilibrated the alternate column isocratically at 10% B. Compound optimization, data collection, and processing was performed using Thermo Electron's QuickQuan software (v2.3) and Xcalibur (v2.0.7 SP1).
In vivo DMPK experimental:
Determination of brain to plasma ratio: […]

[4] = Plasma protein binding, equilibrium dialysis (rat); assay type: in vitro ADME; conditions: pH 7.4, read-out: fu,plasma
Experimental: page 5: Drug Metabolism Methods: In vitro Plasma protein binding and Brain homogenate binding: Determination of fraction unbound (f u) in plasma was conducted in vitro via equilibrium dialysis using HTDialysis (HTD) membrane plates. The top half of the plate was filled with 100 uL of Dubelco’s Phosphate Buffered Saline, pH 7.4 (DPBS). Compounds were diluted into plasma from each species (5 µM final concentration), which was aliquoted in triplicate to the ‘bottom half’ of the prepared HTD plate wells. The HTD plate was sealed and incubated for 6 hours at 37 °C. Following incubation, each well (both top and bottom halves) were transferred (20 µL) to the corresponding wells of a 96- shallow-well (V-bottom) plate. The daughter plates were then matrix-matched (DPBS side wells received equal volume of plasma, and plasma side wells received equal volume of DPBS), and extraction solution (120 µL; acetonitrile containing 50 nM carbamazepine as IS) was added to all wells of both daughter plates to precipitate protein and extract test article. The plates were then sealed and centrifuged (3500 rcf) for 10 minutes at ambient temperature. Supernatant (60 µL) from each well of the daughter plates was then transferred to the corresponding wells of new daughter plates (96-shallow-well, V bottom) containing water (Milli-Q, 60 µL/well), and the plates were sealed in preparation for LC-MS/MS analysis (see LC-MS/MS analysis method below). The unbound fraction (f u) was calculated following the equation below, and mean values for each species were calculated from 3 replicates. […] Fraction unbound for both plasma and brain samples was determined using Equation 4. f = Concbuffer u Concplasma Equation 4 Determination of fraction unbound in plasma. […]

[5] = PAM mode, read-out: rM1 PAM EC50
[6] = agonist mode, read-out: rM1 Agonist EC50

## Cn1cc2c(-c3cc(F)c(CN4Cc5ncccc5C4=O)c(F)c3)cccc2n1 [compound 1]
rM1
  rM1 PAM AChmax (%): 79%
rM1; [5]
  EC50: 213 nM
rM1; [6]
  EC50: > 30000 nM
[1]
  % Total Peak Area, parent remaining: 65.1%
[2]
  % Total Peak Area, parent remaining: 25.8%
[3]
  Predicted CLhep: 1.3 mL/min/kg
[4]
  fraction unbound at 6 h, 5 µM: 0.028

## [2H]C1([2H])c2ncccc2C(=O)N1Cc1c(F)cc(-c2cccc3nn(C)cc23)cc1F [compound 3]
rM1
  rM1 PAM AChmax (%): 85%
rM1; [5]
  EC50: 361 nM
rM1; [6]
  EC50: > 30000 nM
[1]
  % Total Peak Area, parent remaining: 82.6%
[2]
  % Total Peak Area, parent remaining: 58.5%
[3]
  Predicted CLhep: 10.6 mL/min/kg
[4]
  fraction unbound at 6 h, 5 µM: 0.034

## [2H]C1([2H])c2ncccc2C(=O)N1Cc1c(F)cc(-c2cccc3nn(C([2H])([2H])[2H])cc23)cc1F [compound 5]
rM1
  rM1 PAM AChmax (%): 82%
rM1; [5]
  EC50: 249 nM
rM1; [6]
  EC50: > 30000 nM
[1]
  % Total Peak Area, parent remaining: 92.3%
[2]
  % Total Peak Area, parent remaining: 60.5%
[3]
  Predicted CLhep: 8.0 mL/min/kg
[4]
  fraction unbound at 6 h, 5 µM: 0.026
